11 compounds from patent US20260200929A1, “PYRROLO[3,2-D]PYRIMIDIN-4-ONE DERIVATIVE, AND PREPARATION METHOD THEREFOR AND MEDICAL USE THEREOF” (SHENZHEN SALUBRIS PHARMACEUTICALS CO., LTD., priority 2022, published 2026) can be followed below.

Data set [1] concerns the target T1, human myeloperoxidase (hMPO) (Homo sapiens, UniProt P05164).
T1 construct: purchased PLANTANATURAL 700-03-001
Put plainly: Inhibition of human myeloperoxidase (hMPO) peroxidation cycle in vitro. It is filed as biochemical. Particulars: 3'-(p-aminophenyl) fluorescein and H2O2 at Km. Here is the method: 50 μL of 2×substrate (composed of 3′-(p-aminophenyl) fluorescein and H2O2, with 3′-(p-aminophenyl) fluorescein and H2O2 both at Km concentration, purchased from Invitrogen, A36003) to a black opaque low-protein-adsorption 96-well plate (purchased from PerkinElmer, 6005270), and 45 μL of 2×compound at different concentrations (DMSO final concentration of 1%) was added. After thorough blowing and uniform mixing of a mixture, […] of […] human myeloperoxidase (purchased from PLANTANATURAL, 700-03-001) was added and mixed uniformly, and an enzyme-linked immunosorbent assay reader was immediately used at a wavelength of Ex/Em:488/520 nm to read fluorescence values for 0-30 minutes (read every 20 seconds) using a dynamic mode. Different concentrations of compound inhibitors were calculated: inhibition rate (%)=[1−(Slopecontrol−Slopecpd)/SlopeControl−SlopeBlank)]*100, where SlopeBlank is a slope of a control without the compound and an MPO well at 0-5 minutes ([…] reading/reaction time t); SlopeControl is a slope of the well without the compound (containing 1% DMSO) at 0-5 minutes (linear reaction stage); and Slopecpd is a slope of the compound at 0-5 minutes. Using a logarithmic value of the compound concentration as an abscissa and the inhibition rate as an ordinate, a 4-parameter nonlinear regression curve was fitted to calculate the IC50 value (Y=Bottom+(Top-Bottom)/(1+10^((Log IC50−X)*HillSlope)), where Hillslope represents the slope of the fitted curve, and IC50 represents the half inhibitory concentration. Test results were shown in Table 1.

Data set [2] in a line: Pharmacokinetic study in rats. It is filed as in vivo, SD rats. To be noted: for F: 5 mg/kg p.o versus 1 mg/kg i.v; for AUC(0-t) / clearance / half-life / Cmax: male, SD, rat, plasma. The source says: SD rats: male, 180-350 g, purchased from Zhejiang Vital River Laboratory Animal Technology Co., Ltd.
Reagents: dimethyl sulfoxide (DMSO), polyethylene glycol 400 (PEG-400), normal saline, acetonitrile, formic acid, propranolol (internal standard) are all commercially available.
Instrument: Thermo Fisher Scientific LC-MS (Ultimate 3000 UPLC, TSQ QUANTUMN ULTRA triple quadrupole mass spectrometer).
The compound was weighed and dissolved in a DMSO-PEG-400 normal saline (5:60:35, v/v/v) system. After intravenous administration or intragastric administration to rats, 200 μL of venous blood was collected in an EDTA-K2 anticoagulation tube at 15 minutes, 30 minutes, 1 hour, 2 hours, 5 hours, 7 hours, and 24 hours (additional 5 minutes for an IV group) and centrifuged at 12000 rpm for 2 minutes. Plasma was taken and frozen and preserved at −80° C. for testing. A certain amount of samples for test was precisely weighed and dissolved in DMSO to 2 mg/mL as a stock solution. An appropriate amount of compound stock solution was accurately sucked, and diluted by adding acetonitrile to prepare a standard series solution. 4 μL of each of the above standard series solution was accurately sucked, and added to 36 µL of blank plasma, vortex mixing was performed to prepare plasma samples equivalent to plasma concentrations of 1 ng/mL, 3 ng/mL, 5 ng/mL, 10 ng/mL, 30 ng/mL, 100 ng/mL, 300 ng/mL, 1000 ng/mL, and 3000 ng/mL. Dual sample analysis was performed for each concentration to establish a standard curve. 30 μL of plasma (5-fold dilution of plasma of intravenous administration for 5 minutes, 15 minutes, and 30 minutes) was taken, a propranolol acetonitrile solution (internal standard, 50 ng/mL) was added to precipitate the protein, after 100 μL water was added for even vortex mixing, centrifugation was performed at 4000 rpm for 5 minutes, and supernatants were taken for LC-MS/MS analysis. LC-MS detection conditions were as follows: • chromatographic column: YMC-Triart C18 50×3.0 mmI.D. S-3 μm, 12 nm
A mobile phase A: water (0.1% formic acid), a mobile phase B: acetonitrile, a flow rate: 0.5 mL/min, gradient elution: […]
After LC-MS detection of blood drug concentration, WinNonlin 6.1 software was used to calculate pharmacokinetic parameters using non compartmental model method.

The next data set deals with CYP3A (Homo sapiens, UniProt P08684). Put plainly: Enzyme inhibition test, CYP3A in human liver microsomes. Particulars: 0.2 mg/mL human liver microsomes. Format: in vitro ADME. Here is the method: Material: midazolam and testosterone were purchased from Cerilliant and PANPHY; ketoconazole was purchased from MCE; and human liver microsomes were purchased from Corning.
The inhibitory potential of the compound on cytochrome P450 enzyme CYP3A was evaluated using a phosphate buffer saline (100 mM, pH 7.4) system containing 0.2 mg/mL human liver microsomes. The test concentrations of the compound were 0.068 μM, 0.206 μM, 0.62 μM, 1.85 μM, 5.56 μM, 16.67 μM, and 50 μM. The positive substrates in the incubation system were 1 μM midazolam and 40 μM testosterone (CYP3A), respectively. The concentration of the positive inhibitor ketoconazole (CYP3A) in the incubation system was 0.05 μM. Incubation was carried out at 37° C., and an NADPH solution with a final concentration of 1 mM was added to initiate a reaction. The incubation time was 10 minutes. After incubation, all samples were added to 300 μL of acetonitrile solution containing 3% formic acid and internal standard (0.5 μM tolbutamide) to precipitate the protein, and the metabolic product generation of the labeled substrate was detected by UPLC-MS/MS to calculate an IC50 value of compound inhibition.

The subject of another data set is CYP1A2. The data set is described as follows: Enzyme induction test, CYP1A2 mRNA level in human primary hepatocytes. It is filed as in vitro ADME. To be noted: CYP1A2, 10 μM, 3 days. The source says:
(§1) Material: Williams' Medium E (without phenol red) was purchased from Sigma Aldrich Trading Co., Ltd; Williams+ Medium E, Recombinant human insulin, GlutaMAX, and HEPES were purchased from Life Technologies; Isotonic Percoll was purchased from General Electric; Fetal bovine serum was purchased from Corning; Dexamethasone was commercially available; CellTiter-Fluor™ Cell Viability Assay kit was purchased from Promega; Taqman Gene Expression Assay probe (20×, CYP1A2, FAM labeled), Taqman Gene Expression Assay probe (20×, CYP2B6, FAM labeled), Taqman Gene Expression Assay probe (20×, CYP3A4, FAM labeled), and Taqman Gene Expression Assay probe (20×, ACTB, VIC labeled) were purchased from AB (Applied Biosystems); and human primary hepatocytes were purchased from BioIVT.
(§2) The test compound, a positive inducer, a negative inducer, and internal standard were accurately weighed to prepare a stock solution with the corresponding concentration. A cell thawing solution and incubation buffer were prepared, and related reagents and consumables of mRNA extraction, reverse transcription, and fluorescence quantitative PCR were prepared.
(§3) The frozen human primary hepatocytes were thawed and inoculated onto a suitable cell culture plate at a certain density for monolayer cell culture to meet cell growth requirements. […]

A further data set has as its system CYP3A4. The data set is described as follows: Enzyme induction test, CYP3A4 mRNA level in human primary hepatocytes. It is filed as in vitro ADME. Particulars: CYP3A4, 10 μM, 3 days.
Text: as §1, §2, §3

Another data set relates to CYP2B6. Put plainly: Enzyme induction test, CYP2B6 mRNA level in human primary hepatocytes. Format: in vitro ADME. Particulars: CYP2B6, 10 μM, 3 days.
Text: as §1, §2, §3

[3] abbreviates: pH 7.4, probe midazolam (1 μM), CYP3A (Midazolam).
The mark [4] stands for this setting: pH 7.4, probe testosterone (40 μM), CYP3A (Testosterone).

As a reminder, the IC50 is the concentration needed to halve the response being measured. The AUC(0-t) is exposure summed from dosing to a finite time, without extrapolation to infinity. High values mean high exposure, low ones low exposure. Broadly, the clearance is a measure of how efficiently the substance is removed, as volume per time. In general, half-life refers to how long it takes for the measured level to halve. A higher half-life goes with slow decline. In general, Cmax refers to the highest concentration seen after dosing.

Molecules are shown by their SMILES. Where two headings read alike, the source gives them in different places.

CYP3A, sequence (P08684 2-503): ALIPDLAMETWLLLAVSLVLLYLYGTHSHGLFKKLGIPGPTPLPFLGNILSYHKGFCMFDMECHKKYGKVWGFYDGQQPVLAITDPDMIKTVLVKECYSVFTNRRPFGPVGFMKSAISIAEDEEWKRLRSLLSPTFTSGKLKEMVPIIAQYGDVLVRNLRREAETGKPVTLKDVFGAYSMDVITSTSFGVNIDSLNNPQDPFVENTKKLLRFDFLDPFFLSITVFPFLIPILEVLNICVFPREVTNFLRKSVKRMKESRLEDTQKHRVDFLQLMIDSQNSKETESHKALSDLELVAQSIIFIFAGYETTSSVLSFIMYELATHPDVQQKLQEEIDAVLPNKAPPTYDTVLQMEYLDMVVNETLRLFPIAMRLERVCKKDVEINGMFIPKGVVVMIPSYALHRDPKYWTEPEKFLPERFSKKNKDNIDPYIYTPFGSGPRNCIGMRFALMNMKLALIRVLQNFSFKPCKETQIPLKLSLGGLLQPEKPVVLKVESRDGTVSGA
T1 sequence (P05164 279-745 limits assumed): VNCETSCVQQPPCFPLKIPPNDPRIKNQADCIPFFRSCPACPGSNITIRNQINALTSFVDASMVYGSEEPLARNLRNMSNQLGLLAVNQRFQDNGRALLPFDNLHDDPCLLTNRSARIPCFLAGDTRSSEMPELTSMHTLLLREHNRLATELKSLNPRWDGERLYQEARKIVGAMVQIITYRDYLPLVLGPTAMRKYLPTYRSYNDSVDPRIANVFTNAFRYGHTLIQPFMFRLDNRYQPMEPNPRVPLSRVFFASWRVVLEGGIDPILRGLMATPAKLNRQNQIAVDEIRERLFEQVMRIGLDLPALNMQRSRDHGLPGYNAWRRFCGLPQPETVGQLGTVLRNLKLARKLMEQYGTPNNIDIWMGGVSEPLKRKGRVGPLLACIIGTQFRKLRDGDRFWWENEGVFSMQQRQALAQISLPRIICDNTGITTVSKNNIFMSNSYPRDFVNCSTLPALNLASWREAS
T1 sequence (P05164 165-273 limits assumed): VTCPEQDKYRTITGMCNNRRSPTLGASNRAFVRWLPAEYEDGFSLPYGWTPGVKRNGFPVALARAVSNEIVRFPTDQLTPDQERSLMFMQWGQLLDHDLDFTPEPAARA

In data set [1], `NC1CCOc2cccc(Cn3c(=S)[nH]c(=O)c4[nH]ccc43)c21` (stereo not drawn) [Compound 6, 1-((4-aminochroman-5-yl)methyl)-2-thio-1,2,3,5-tetrahydro-4H-pyrrolo[3,2-d]pyrimidin-4-one] yielded an IC50 of 0.00802 µM. In data set [2], this compound showed an F of 48.6%. Further, the AUC(0-t) in data set [2] (iv, 1 mg/kg i.v) stood at 827 ng·h/mL; in data set [2] (po, 5 mg/kg p.o), 2010 ng·h/mL. The same compound had a clearance in data set [2] (iv, 1 mg/kg i.v) of 19.9 mL/min/kg. The half-life in data set [2] (iv, 1 mg/kg i.v) is 3.36 h; in data set [2] (po, 5 mg/kg p.o), 5.13 h. Besides, the peak concentration (Cmax) in data set [2] (iv, 1 mg/kg i.v, read-out: Cmax) came out at 620 ng/mL; in data set [2] (po, 5 mg/kg p.o, read-out: Cmax), 305 ng/mL.

As to `N[C@@H]1CCCc2cccc(Cn3c(=S)[nH]c(=O)c4[nH]ccc43)c21` (single isomer, unassigned) [Compound 7A, 1-((8-amino-5,6,7,8-tetrahydronaphthalene-1-yl)methyl)-2-thio-1,2,3,5-tetrahydro-4H-pyrrolo[3,2-d]pyrimidin-4-one], the IC50 at 10 min was more than 50 µM at CYP3A (setting [3]) and 19.7 µM at CYP3A (setting [4]). Moreover, the “mRNA Relative positive induction percentage” value stood at 0.15% in the data set with CYP1A2, 7.93% in the data set with CYP3A4 and 8.41% in the data set on CYP2B6. Moreover, in data set [1], the IC50 came out at 0.00483 µM. The same compound registered a F in data set [2] of 83.3%. Further, the AUC(0-t) in data set [2] (iv, 1 mg/kg i.v) was found to be 293 ng·h/mL; in data set [2] (po, 5 mg/kg p.o), 1220 ng·h/mL. In addition, the Cmax was 800 ng/mL in data set [2] (iv, 1 mg/kg i.v) and 500 ng/mL in data set [2] (po, 5 mg/kg p.o). In data set [2] (iv, 1 mg/kg i.v), this compound gave a clearance of 52.7 mL/min/kg. In addition, the half-life in data set [2] (iv, 1 mg/kg i.v) was 2.59 h; in data set [2] (po, 5 mg/kg p.o), 3.44 h.

As for `COc1c[nH]c2c(=O)[nH]c(=S)n(Cc3cccc4c3C(N)CCO4)c12` (stereo not drawn) [Compound 17, 1-((4-aminochroman-5-yl)methyl)-7-methoxyl-2-thio-1,2,3,5-tetrahydro-4H-pyrrolo[3,2-d]pyrimidin-4-one], the IC50 in data set [1] came out at 0.0234 µM.

Consider `NC1CCc2c(Cl)ccc(Cn3c(=S)[nH]c(=O)c4[nH]ccc43)c21` (stereo not drawn) [Compound 1, 1-((3-amino-7-chloro-2,3-dihydro-1H-inden-4-yl)methyl)-2-thio-1,2,3,5-tetrahydro-4H-pyrrolo[3,2-d]pyrimidin-4-one], for which, in data set [1], it took 0.0516 µM to reach half-maximal inhibition (IC50).

As to `NC1COc2cccc(Cn3c(=S)[nH]c(=O)c4[nH]ccc43)c21` (stereo not drawn) [Compound 3], the IC50 in data set [1] came to 0.031 µM. Against the preceding compound, the IC50 is about 1.7-fold lower.

Regarding `N[C@@H]1CCCOc2cccc(Cn3c(=S)[nH]c(=O)c4[nH]ccc43)c21` (single isomer, unassigned) [Compound 15A, 1-((5-amino-2,3,4,5-tetrahydrobenzo[b]oxypyrimidin-6-yl)methyl)-2-thio-1,2,3,5-tetrahydroxy-4H-pyrrolo[3,2-d]pyrimidin-4-one], in data set [1], the IC50 turned out to be 0.00992 µM.

`Cc1c[nH]c2c(=O)[nH]c(=S)n(Cc3cccc4c3C(N)CCO4)c12` (stereo not drawn) [Compound 16] returned an IC50 in data set [1] of 0.0196 µM. Against the preceding compound, the IC50 is about 2-fold higher.

`NC1CCOc2c(Cl)ccc(Cn3c(=S)[nH]c(=O)c4[nH]ccc43)c21` (stereo not drawn) [Compound 5, 1-((4-amino-8-chlorochroman-5-yl)methyl)-2-thio-1,2,3,5-tetrahydro-4H-pyrrolo[3,2-d]pyrimidin-4-one] yielded an IC50 in data set [1] of 0.0161 µM.

In the case of `NC1COc2c(Cl)ccc(Cn3c(=S)[nH]c(=O)c4[nH]ccc43)c21` (stereo not drawn) [Compound 2, 1-((3-amino-7-chloro-2,3-dihydrobenzofuran-4-yl)methyl)-2-thio-1,2,3,5-tetrahydro-4H-pyrrolo[3,2-d]pyrimidin-4-one], in data set [1], the IC50 is 0.033 µM. This IC50 lies about 2-fold higher than the previous one.

Compound `NC1CCCc2cccc(Cn3c(=S)[nH]c(=O)c4[nH]ccc43)c21` (stereo not drawn) [Compound 7, 1-((8-amino-5,6,7,8-tetrahydronaphthalene-1-yl)methyl)-2-thio-1,2,3,5-tetrahydro-4H-pyrrolo[3,2-d]pyrimidin-4-one] showed an IC50 in data set [1] of 0.0107 µM.

Take `N[C@@H]1CCOc2cccc(Cn3c(=S)[nH]c(=O)c4[nH]ccc43)c21` (single isomer, unassigned) [Compound 6A]: the IC50 at 10 min on CYP3A (setting [3]) was more than 50 µM; on CYP3A (setting [4]), 27.3 µM. Also, the “mRNA Relative positive induction percentage” value is given as −0.29% with CYP1A2, 2.10% in the data set on CYP3A4 and 1.68% with CYP2B6. In addition, the IC50 in data set [1] was 0.00464 µM. Besides, the F in data set [2] is 57.2%. Also, the AUC(0-t) in data set [2] (iv, 1 mg/kg i.v) was 1270 ng·h/mL; in data set [2] (po, 5 mg/kg p.o), 3630 ng·h/mL. The Cmax in data set [2] (iv, 1 mg/kg i.v) was 1900 ng/mL; in data set [2] (po, 5 mg/kg p.o) it was 1700 ng/mL. The clearance in data set [2] (iv, 1 mg/kg i.v) stood at 13 mL/min/kg. In addition, the half-life in data set [2] (iv, 1 mg/kg i.v) was 4.98 h; in data set [2] (po, 5 mg/kg p.o) it was 3.66 h.
